Numbers after ± are expanded uncertainties.
Tests used:
[1] = molar heat capacity at constant pressure; details: 3000 kPa, Liquid, Flow calorimetry
[2] = molar heat capacity at constant pressure; wn = mass fraction of the nth substance listed; details: 3000 kPa, Liquid, Flow calorimetry, w1 = 1

SMILES | molar heat capacity at constant pressure ([1]; 304.17 K) [J/K/mol] | molar heat capacity at constant pressure ([1]; 314.14 K) [J/K/mol] | molar heat capacity at constant pressure ([1]; 324.11 K) [J/K/mol] | molar heat capacity at constant pressure ([1]; 334.09 K) [J/K/mol] | molar heat capacity at constant pressure ([2]; 304.17 K) [J/K/mol] | molar heat capacity at constant pressure ([2]; 314.14 K) [J/K/mol] | molar heat capacity at constant pressure ([2]; 324.11 K) [J/K/mol] | molar heat capacity at constant pressure ([2]; 334.09 K) [J/K/mol]
N [ammonia] | 82.46 ± 0.53 | 83.45 ± 0.53 | 85.83 ± 0.53 | 89.36 ± 0.53 | – | – | – | –
N [ammonia] + N#C[S-].[Na+] | – | – | – | – | 82.46 ± 0.53 | 83.45 ± 0.53 | 85.83 ± 0.53 | 89.36 ± 0.53
